Test results as given in US20150272934A1, “USE OF CSE INHIBITORS FOR THE TREATMENT OF CUTANEOUS INJURIES OR CONDITIONS AND SLEEP-RELATED BREATHING DISORDERS” (SOVA PHARMACEUTICALS, INC., priority 2012, published 2015).

Columns and labels:
[1] = system: deep partial thickness cutaneous burn injury, zone of stasis; test: Comb burn model for cutaneous burn; format: in vivo, Sprague-Dawley rats
[2] = Half-life of L-propargylglycine (statement in dosing rationale)
[3] = system: hypoxic ventilatory response; test: Rat hypoxic ventilatory response (HVR) in sham and carotid sinus nerve (CSN) transection animals; format: in vivo, Sprague Dawley rats; conditions: 100 mg/kg L-PAG
Method: Male Sprague Dawley rats from Harlan Laboratories weighing 350±31 g (Mean±SD); were maintained on a 12 hour light:dark cycle (6 am lights on) with food and water ad libitum.
L-Propargyl Glycine (L-PAG) was solubilized in saline at 33.3 mg/ml.
Carotid sinus nerve (CSN) transaction—Under appropriate anesthesia the rat's neck is shaved and prepped for surgery with betadine solution. An incision is made in the throat area extending about 2 cm. The underlying musculature is incised to expose the carotid bifurcation on both sides. A silk suture is looped around the proximal external carotid and retracted laterally for control. […] The carotid sinus nerve is transected where it originates on the exposed part of the glossopharyngeal and ascends to the carotid bifurcation.
Animals were pre-habituated to the test environment on 2 separate 45 minute periods prior to the test day. Following administration of test compounds animals were placed inside the whole body plethysmography chamber. The animals were allowed to acclimate to the environment for 60 minutes while breathing a 21% O2 balance N2 gas mix. After acclimation, the following gas mix protocol was followed:
Cycles were designated to be the periods of both normoxia and hypoxia. Each experiment consisted of 2 cycles (or repeated sets) of the HVR to a normoxic-hypoxic shift. The cycles were 30 minutes in duration to allow for serial sampling from baseline and all 4 WBP test chambers. Each sampling period was of 4 minutes duration and was in a varying order but was always preceded by a 4 minute baseline. The sampling periods were calculated to allow for equilibration of the gas mixture in the WBP chamber. Switching of the multiplexer (MUX) line sampler system was achieved through use of a user defined program. The gas mixtures were likewise switched automatically using a user defined custom mix program and the Sable Systems/Alicat Multi Flow Controller utility.
Analysis of data was performed in GraphPad Prism (v5) using embedded 1-way Analysis of Variance (ANOVA) followed by Dunnett's or Tukey's MCT post hoc testing where appropriate. Bartlett's Equal Variance tests were performed on all data sets, however failure of equal variance was not considered to impinge the validity of the test.

**Q.** Which “Viability of zones of stasis/interspaces on gross examination (burn progression)” value ([1]; L-propargylglycine 100 mg/kg IP Day 0, Compound 1 20 mg/kg PO once daily, 6-day time course, versus control animals) does the source give for `C#CC[C@H](N)C(=O)O` [L-propargylglycine] here?
**A.** The value was “maintain viability”.

**Q.** What about the “Perfusion in zones of stasis/interspace areas (LDI analysis)” value ([1]; over time course, control animals showed a decrease in perfusion) of the same molecule?
**A.** The value was “perfusion is maintained”.

**Q.** And the “Blinded photo grading of treated interspaces versus control interspaces” value ([1]; within 48-72 hours, less injured versus worse/the same scale)?
**A.** Its value is “less injured than controls”.

**Q.** And the half-life [2]?
**A.** Its half-life is “very long”.

**Q.** And the “HVR (change in slope of minute ventilation)” value ([3]; CSN transection animals)?
**A.** Its value is “did not change”.

**Q.** And the “Increase of minute ventilation (VE) when FiO2 changed from 21% to 10%” value ([3]; CSN transection animals)?
**A.** Its value is 22%.

**Q.** And the “Increase of minute ventilation (VE) when FiO2 changed from 21% to 10%” value ([3]; sham animals)?
**A.** The value was 51%.

**Q.** What about the “HVR (change in slope of minute ventilation)” value ([3]; sham animals, p<0.05) of the same molecule?
**A.** Its value is “significantly reduced”.
